Laboratory results published in patent US5599548A, “Skin care compositions containing fatty acid amides and retinol or retinyl ester” (priority 1995, dated 1997).
“Also recorded” adds a separate entry of the source. Read-outs that look alike come from different tables or passages of the source.

Assays:
[1] = test system: TGase I (keratinocyte transglutaminase level); experiment: Transglutaminase (TGase I) ELISA assay (keratinocyte differentiation); assay type: cell-based, human
Procedure: (§1) Human keratinocytes, isolated from neonatal foreskin by trypsin treatment were grown in Dulbecco Modification Eagle (DME) Hams F12 (1:1) medium/10% fetal calf serum in the presence of irradiated 3T3 mouse fibroblasts for establishing dividing keratinocyte colonies. Cells were grown under the above condition until their second passage and kept frozen for future use. […] On day 7, when the cells were 80-90% confluent, they were trypsinized and plated in the serum-free medium for the various experiments.
During the process of terminal differentiation in the epidermis, a 15 nm thick layer of protein, known as the cornified envelope (CE) is formed on the inner surface of the cell periphery. The CE is composed of numerous distinct proteins which have been cross-linked together by the formation of N^ε -(γ-glutamyl) lysine isodipeptide bonds catalyzed by the action of at least two different transglutaminases (TGases) expressed in the epidermis. TGase I is expressed in abundance in the differentiated layers of the epidermis, especially the granular layer, but is absent in the undifferentiated basal epidermis. Thus TGase I is a useful marker of epidermal keratinocyte differentiation with high TGase I levels indicating a more differentiated state. An ELISA based TGase I assay, using a TGase I antibody, was used to assess the state of differentiation of the cultured keratinocytes in the examples that follow.
Keratinocytes (cultured as described above) were plated in 96 well plates at a density of 3,000 cells per well in 200 μl media. After incubation for four days the media was changed to media containing test compounds (six replicates per test). The cells were cultured for a further 72 hours after which time the media was aspirated and the plates stored at -70° C. Plates were removed from the freezer, and the cells washed with PBS. 100 μl sterile water was added and the cells were freeze fractured by freezing at -70° C. then thawing. The cells were incubated for one hour at room temperature (R/T) with PBS/3% BSA (wash buffer, bovine serum albumin), then rinsed with a fresh aliquot of wash buffer. Cells were incubated with 50 μl of primary antibodies monoclonal anti-human transglutaminase (IgG) obtained from Amersham (mouse) diluted 1:300 in wash buffer for one hour, 37° C. then rinsed two times with wash buffer. Cells were then incubated with 50 μl of secondary antibody (Feb fragment, peroxidase conjugated anti-mouse IgG obtaining from Amersham) diluted 1:200 in wash buffer for one hour at 37° C., then rinsed two times with wash buffer. Cells were incubated with substrate solution (4 mg o-phenylene diamine and 3.3 μl 30% H2 O2 in 10 ml 0.1M citrate buffer pH 5.0) for five minutes, R/T, in darkness (under aluminum foil). The reaction was stopped by the addition of 50 μl 4N H2 SO4. The absorbance of samples was read at 492 nm in the plate reader. Out of the six replicates, four were treated with both antibodies, two were treated only with the secondary antibody (i.e., to determine background binding of enzyme conjugated Ab). TGase levels were determined by subtracting background from the readings from each treatment and determining mean ±s.d. for the replicates exposed to both Ab.

Human keratinocytes = experiment: 3H-Thymidine incorporation (keratinocyte proliferation); assay type: cell-based; conditions: for increase of thymidine incorporation/proliferation over ethanol control: retinol 2.5×10^-8 M; for activity at 0.025 µM: 2.5 × 10^-8 M
Procedure: as §1
The incorporation of […] by cultured keratinocytes was used as an assay of keratinocyte proliferation. Thymidine is one of four deoxynucleosides which are the monomeric units of DNA, the universal library of genetic information in the animal kingdom. Prior to cell division of a somatic cell such as a keratinocyte, the complete genome of the cell undergoing cell division is replicated. This involves large scale DNA synthesis by the cell and enables both daughter cells to receive identical copies of the genetic material. When ^3 H-thymidine is included in the culture media of keratinocytes which are synthesizing DNA in preparation for cell division then the labelled nucleoside is incorporated into the newly synthesized DNA. The extent of incorporation of ^3 H-thymidine into a population of cells is proportional to the rate of DNA synthesis by this population of cells and therefore an indication of their cellular proliferation.
Keratinocytes (that were cultured as described above) were plated in 24 well plates at a density of 40,000 cells per well in 1 ml media. After incubation for four days or until the cells were 60-70% confluent, the media was changed. Test compounds were added (in triplicate) to the wells 24 hours after the media change, and four hours later 1μCi^3 H-Thymidine in 50 μl media was added per well. Cells were incubated for a further 24 hours. Media was removed from the cells, 10% ice cold trichloroacetic acid (TCA) added and plates were incubated on ice for 30 minutes. Cells were washed five times with 5% TCA and allowed to dissolve in 500 μl 0.1M NaOH for at least one hour (usually overnight). The preparations were neutralized with 0.1M HCl; 50 μl of the cell preparation was used to determine total protein content. Disintegrations per minute (DPM) from ^3 H labelling of DNA was determined by liquid scintillation counting of […] of the cell preparation. Thymidine incorporation results were expressed as DPM/μg protein.

[2] = Table 3B, RA, RP 2.5 × 10^-7 M, linoleoyl-DEA 10^-6 M, alone or combined, n = 3
[3] = Table 4A, RA, retinol 2.5 × 10^-7 M, cocoyl-DEA 10^-7 M, alone or combined, n = 3
[4] = Table 4B, RA, retinol 2.5 × 10^-8 M, cocoyl-MEA 10^-8 M, alone or combined, n = 3
[5] = Table 5B, RA, retinol 2.5 × 10^-8 M, methyl linoleate 10^-8 M, alone or combined, n = 3
[6] = concentrations as in the respective Example

CC1=C(/C=C/C(C)=C/C=C/C(C)=C/C(=O)O)C(C)(C)CCC1 [RA, retinoic acid]
activity at 0.25 µM ([1]; Homo sapiens, Keratinocyte, 72 h, Table 1B, 2.5 × 10^-7 M, 72 h, n = 3, read-out: Transglutaminase level, % control): 20% | activity at 0.025 µM ([1]; Homo sapiens, Keratinocyte, 72 h, Table 1B, 2.5 × 10^-8 M, 72 h, n = 3, read-out: Transglutaminase level, % control): 62% | activity at 0.0025 µM ([1]; Homo sapiens, Keratinocyte, 72 h, Table 1B, 2.5 × 10^-9 M, 72 h, n = 3, read-out: Transglutaminase level, % control): 84% | activity at 1 µM ([1]; Homo sapiens, Keratinocyte, Table 5A, RA, retinol 2.5 × 10^-7 M, linoleic acid 10^-6 M, alone or combined, n = 3, read-out: TGase (TG1) level, % control): 0% | activity at 0.25 µM ([1]; Homo sapiens, Keratinocyte, Table 8A, 2.5 × 10^-7 M, n = 3, read-out: TGase, % control): 34% | activity at 0.025 µM ([1]; Homo sapiens, Keratinocyte, Table 8A, 2.5 × 10^-8 M, n = 3, read-out: TGase, % control): 64% | activity at 0.0025 µM ([1]; Homo sapiens, Keratinocyte, Table 8A, 2.5 × 10^-9 M, n = 3, read-out: TGase, % control): 87% | activity at 0.25 µM ([1]; Homo sapiens, Keratinocyte, Table 8B, 2.5 × 10^-7 M, n = 3, read-out: TGase, % control): 12% | mean Transglutaminase ELISA level ± s.d ([1]; Table 1B, 2.5 × 10^-7 M, 72 h, n = 3): 0.088 ± 0.015 | mean Transglutaminase ELISA level ± s.d ([1]; Table 1B, 2.5 × 10^-8 M, 72 h, n = 3): 0.268 ± 0.068 | mean Transglutaminase ELISA level ± s.d ([1]; Table 1B, 2.5 × 10^-9 M, 72 h, n = 3): 0.360 ± 0.067 | TGase (TG1) level, % control ([1]; Table 2B, RA, ROH 2.5 × 10^-7 M, linoleoyl-DEA 10^-6 M, alone or combined, 72 h, n = 9): 28% | mean TGase ± s.d ([1]; Table 2B, RA, ROH 2.5 × 10^-7 M, linoleoyl-DEA 10^-6 M, alone or combined, 72 h, normalized to ethanol control, n = 9): 0.283 ± 0.470 | TGase (TG1) level, % control [1, 2]: 33% | mean TGase ± s.d [1, 2]: 0.073 ± 0.022 | TGase (TG1) level, % control [1, 3]: 33% | mean TGase ± s.d [1, 3]: 0.058 ± 0.098 | TGase (TG1) level, % control [1, 4]: 29% | mean TGase ± s.d [1, 4]: 0.036 ± 0.009 | mean TGase ± s.d ([1]; Table 5A, RA, retinol 2.5 × 10^-7 M, linoleic acid 10^-6 M, alone or combined, n = 3): -0.004 ± 0.103 | TGase (TG1) level, % control [1, 5]: 32% | mean TGase ± s.d [1, 5]: 0.092 ± 0.030 | mean TGase level ± s.d ([1]; Table 6A (Effect on Keratinocyte TGase), RA, ROH 2.5 × 10^-7 M, formamide 10^-7 M, alone or combined, 72 h, n = 3): 0.137 ± 0.024 | TGase (TG1) level, % control ([1]; Table 6A, RA, ROH 2.5 × 10^-7 M, formamide 10^-7 M, alone or combined, 72 h, n = 3): 28% | mean TGase level ± s.d ([1]; Table 6B (Effect on Keratinocyte TGase), RA, ROH 2.5 × 10^-7 M, acetamide 10^-7 M, alone or combined, 72 h, n = 3): 0.226 ± 0.069 | TGase (TG1) level, % control ([1]; Table 6B, RA, ROH 2.5 × 10^-7 M, acetamide 10^-7 M, alone or combined, 72 h, n = 3): 46% | mean TGase level ± s.d ([1]; Table 6C (Effect on Keratinocyte TGase), RA, ROH 2.5 × 10^-7 M, pentanoyl-DEA 10^-7 M, alone or combined, 72 h, n = 3): 0.088 ± 0.015 | mean TGase ± s.d ([1]; Table 8A, 2.5 × 10^-7 M, n = 3): 0.073 ± 0.022 | mean TGase ± s.d ([1]; Table 8A, 2.5 × 10^-8 M, n = 3): 0.138 ± 0.034 | mean TGase ± s.d ([1]; Table 8A, 2.5 × 10^-9 M, n = 3): 0.190 ± 0.091 | mean TGase ± s.d ([1]; Table 8B, 2.5 × 10^-7 M, n = 3): 0.015 ± 0.025 | effect on keratinocyte TG1 levels / differentiation, in words [1, 6]: decreased keratinocyte differentiation; also recorded: repressed keratinocyte TG 1 levels completely; also recorded: significantly decreased keratinocyte TGase levels; also recorded: decreased transglutaminase I levels | increase of thymidine incorporation/proliferation over ethanol control (Human keratinocytes; Example 2A, RA, linoleoyl-DEA 10^-9 M): 26% | increase of thymidine incorporation/proliferation over ethanol control (Human keratinocytes; Example 4C, RA, palmitoyl-MEA 10^-6 M): 16% | increase of thymidine incorporation/proliferation over ethanol control (Human keratinocytes; Example 4D, RA, linoleoyl-MEA 10^-9 M): 47% | activity at 0.25 µM (Human keratinocytes; Homo sapiens, Keratinocyte, 24 h, Table 1A, first RA/ROH pair, 2.5 × 10^-7 M, 24 h, n = 3, read-out: thymidine incorporation, % control): 118% | activity at 0.25 µM (Human keratinocytes; Homo sapiens, Keratinocyte, 24 h, Table 1A, second RA/ROH pair, 2.5 × 10^-7 M, 24 h, n = 3, read-out: thymidine incorporation, % control): 128% | activity at 0.25 µM (Human keratinocytes; Homo sapiens, Keratinocyte, 24 h, Table 1A, third RA/ROH pair, 2.5 × 10^-7 M, 24 h, n = 3, read-out: thymidine incorporation, % control): 122% | activity at 0.0025 µM (Human keratinocytes; Homo sapiens, Keratinocyte, 24 h, Table 3A, RA 2.5 × 10^-9 M, RP 2.5 × 10^-7 M, linoleoyl-DEA 10^-8 M, alone or combined, n = 3, read-out: thymidine incorporation, % control): 117% | activity at 0.25 µM (Human keratinocytes; Homo sapiens, Keratinocyte, 24 h, Table 7A, 2.5 × 10^-7 M, 24 h, n = 9, read-out: mean Thymidine incorp/μg protein ± s.d): 113 ± 10.9% | activity at 0.25 µM (Human keratinocytes; Homo sapiens, Keratinocyte, 24 h, Table 7A, 2.5 × 10^-7 M, 24 h, n = 9, read-out: thymidine incorporation, % control): 113% | activity at 0.025 µM (Human keratinocytes; Homo sapiens, Keratinocyte, 24 h, Table 7A, 24 h, n = 9, read-out: mean Thymidine incorp/μg protein ± s.d): 125 ± 13.9% | activity at 0.025 µM (Human keratinocytes; Homo sapiens, Keratinocyte, 24 h, Table 7A, 24 h, n = 9, read-out: thymidine incorporation, % control): 126% | activity at 0.0025 µM (Human keratinocytes; Homo sapiens, Keratinocyte, 24 h, Table 7A, 2.5 × 10^-9 M, 24 h, n = 9, read-out: mean Thymidine incorp/μg protein ± s.d): 121 ± 12.8% | activity at 0.0025 µM (Human keratinocytes; Homo sapiens, Keratinocyte, 24 h, Table 7A, 2.5 × 10^-9 M, 24 h, n = 9, read-out: thymidine incorporation, % control): 121% | activation at 0.0025 µM (Human keratinocytes; Homo sapiens, Keratinocyte, read-out: increase of thymidine incorporation/proliferation over ethanol control): 17% | mean Thymidine incorp./μg protein ± s.d (Human keratinocytes; Table 1A, first RA/ROH pair, 2.5 × 10^-7 M, 24 h, n = 3): 2475 ± 116 DPM/μg protein | mean Thymidine incorp./μg protein ± s.d (Human keratinocytes; Table 1A, second RA/ROH pair, 2.5 × 10^-7 M, 24 h, n = 3): 2686 ± 72 DPM/μg protein | mean Thymidine incorp./μg protein ± s.d (Human keratinocytes; Table 1A, third RA/ROH pair, 2.5 × 10^-7 M, 24 h, n = 3): 2556 ± 80 DPM/μg protein | mean Thymidine incorp./μg protein ± s.d (Human keratinocytes; Table 2A, RA, ROH 2.5 × 10^-8 M, linoleoyl-DEA 10^-9 M, alone or combined, 24 h, normalized to ethanol control, n = 9): 1.255 ± 0.139 | mean Thymidine incorp./μg protein ± s.d (Human keratinocytes; Table 3A, RA 2.5 × 10^-9 M, RP 2.5 × 10^-7 M, linoleoyl-DEA 10^-8 M, alone or combined, n = 3): 1990 ± 61 DPM/μg protein | mean Thymidine incorp./μg protein ± s.d (Human keratinocytes; Table 4C, RA, retinol 2.5 × 10^-8 M, palmitoyl-MEA 10^-6 M, alone or combined, control = 1.000, n = 3): 1.164 ± 0.113 | thymidine incorporation, % control (Human keratinocytes; Table 4C, RA, retinol 2.5 × 10^-8 M, palmitoyl-MEA 10^-6 M, alone or combined, n = 3, 1440 min): 116% | thymidine incorporation, % control (Human keratinocytes; Table 4D, RA, ROH 2.5 × 10^-8 M, linoleoyl-MEA 10^-9 M, alone or combined, 24 h, n = 3): 147% | mean Thymidine incorp./μg protein ± s.d (Human keratinocytes; Table 4D, RA, ROH 2.5 × 10^-8 M, linoleoyl-MEA 10^-9 M, alone or combined, 24 h, normalized to ethanol control, n = 3): 1.47 ± 0.36 | effect on keratinocyte proliferation, in words (Human keratinocytes; [6]): significantly increased keratinocyte proliferation; also recorded: increased thymidine incorporation
